Values of other authors in patent US20230364032A1, “USE OF 2-HOBA TO TREAT ATHEROSCLEROSIS” (Vanderbilt University, priority 2020, published 2023).
Like-named read-outs stand apart in the source and are kept apart here.

Assays:
[1] = tested on: Apoe−/− mice; conditions: cited from earlier work; for effect on atherosclerotic lesions: streptozotocin-treated Apoe−/− mice
[2] = target: T1, IL-1β (Homo sapiens, UniProt P01584); conditions: humans with prior MI and elevated hsCRP; cited from earlier work
T1 construct: host or cells: patients of a clinical trial (endogenous protein)

N=C(N)NN [aminoguanidine]
effect on atherosclerotic lesions [1]: reduce atherosclerotic lesions

Cc1ncc(CO)c(CN)c1O [pyridoxamine]
effect on atherosclerotic lesions [1]: reduce atherosclerotic lesions

canakinumab: an IL-1β neutralizing monoclonal antibody
cardiovascular event rates [2]: reduce cardiovascular event rates

NCCC(=O)N[C@@H](Cc1cnc[nH]1)C(=O)O [carnosine]
effect on atherosclerosis ([1]; Apoe−/− mice or streptozotocin-treated Apoe−/− mice): reduce atherosclerosis

Cc1c(C)c2c(c(C)c1O)CC[C@@](C)(CCC[C@H](C)CCC[C@H](C)CCCC(C)C)O2 [alpha tocopherol]
effect on atherosclerosis ([1]; Apoe−/− mice): reduces | effect on urine F2-IsoP levels ([1]; Apoe−/− mice): reduces
